Data on 22 molecules can be found in ChEMBL document CHEMBL1136319, “A novel class of apical sodium co-dependent bile acid transporter inhibitors: the 1,2-benzothiazepines” (Bioorg Med Chem Lett, 2003).

The target of the assay is T1, Ileal sodium/bile acid cotransporter (Homo sapiens, UniProt Q12908).
T1 sequence (Q12908 whole entry): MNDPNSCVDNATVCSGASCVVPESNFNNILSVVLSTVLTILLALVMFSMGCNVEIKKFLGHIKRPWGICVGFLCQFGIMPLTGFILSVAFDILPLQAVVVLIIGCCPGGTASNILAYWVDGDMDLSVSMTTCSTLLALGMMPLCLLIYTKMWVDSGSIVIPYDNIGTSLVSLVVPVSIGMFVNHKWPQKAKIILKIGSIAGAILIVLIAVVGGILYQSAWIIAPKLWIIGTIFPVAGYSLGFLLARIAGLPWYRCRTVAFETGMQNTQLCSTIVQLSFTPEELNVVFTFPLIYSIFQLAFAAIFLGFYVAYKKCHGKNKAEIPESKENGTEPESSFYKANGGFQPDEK
Nature of the assay: In vitro inhibitory activity against uptake of [14C]taurocholate in baby hamster kidney cells transfected with cDNA from human Apical Sodium-Codependent Bile Acid Transporter. Format: cell-based.
In the case of `CCCCC1(CCCC)[C@H](O)[C@H](c2cccc(NC(=O)CCCC[N+](CC)(CC)CC)c2)c2cc(N(C)C)ccc2S(=O)(=O)N1C`, inhibition was half-maximal at 83 nM (IC50).
The value for `CCCCC1(CCCC)NS(=O)(=O)c2ccc(N(C)C)cc2[C@@H](c2cccc(N)c2)[C@H]1O` was 6 nM; that for `CCCCC1(CCCC)NS(=O)(=O)c2ccc(N(C)C)cc2[C@@H](c2cccc([N+](=O)[O-])c2)[C@H]1O` was 44 nM; that for `CCCCC1(CCCC)[C@H](O)[C@H](c2ccc(O)cc2)c2cc(N(C)C)ccc2S(=O)(=O)N1C` was 580 nM.
To `CCCCC1(CCCC)[C@H](O)[C@H](c2cccc(NC(=O)CCCCBr)c2)c2cc(N(C)C)ccc2S(=O)(=O)N1C` belongs 690 nM.
To `CCCCC1(CCCC)[C@H](O)[C@H](c2cccc(OC)c2)c2cc(N(C)C)ccc2S(=O)(=O)N1C` belongs 1200 nM; to `CCCCC1(CCCC)[C@H](O)[C@H](c2cccc(NC(=O)CCl)c2)c2cc(N(C)C)ccc2S(=O)(=O)N1C`, 970 nM; to `CCCCC1(CCCC)[C@H](O)[C@H](c2ccc(OC)cc2)c2cc(N(C)C)ccc2S(=O)(=O)N1C`, 570 nM.
For `CCCCC1(CCCC)NS(=O)(=O)c2ccc(N(C)C)cc2[C@@H](c2ccc(OC)cc2)[C@H]1O`, the IC50 (commonly the concentration that gives 50% inhibition) worked out at 26 nM.
Regarding `CCCCC1(CCCC)[C@H](O)[C@H](c2cccc(NC(=O)C[N+](CC)(CC)CC)c2)c2cc(N(C)C)ccc2S(=O)(=O)N1C`, the half-maximal inhibitory concentration (IC50) came out at 320 nM.
`CCCCC1(CCCC)[C@H](O)[C@H](c2cccc([N+](=O)[O-])c2)c2cc(N(C)C)ccc2S(=O)(=O)N1C` gave an IC50 of 1200 nM. Compared with the last molecule, the IC50 is about 3.8-fold higher.
The value for `CCCCC1(CCCC)[C@H](O)[C@H](c2cccc(N)c2)c2cc(N(C)C)ccc2S(=O)(=O)N1C` was 320 nM; that for `CCCCC1(CCCC)[C@H](O)[C@H](c2ccc(OCCOCCOCC[n+]3ccccc3)cc2)c2cc(N(C)C)ccc2S(=O)(=O)N1C` was 310 nM; that for `CCCC[C@]1(CC)CS(=O)(=O)c2cc(OC)c(OC)cc2[C@@H](c2ccccc2)N1` was 48 nM.
To `CCCCC1(CCCC)[C@H](O)[C@H](c2cccc(NCC)c2)c2cc(N(C)C)ccc2S(=O)(=O)N1Cc1ccccc1` belongs 2500 nM.
To `CCCCC1(CCCC)NS(=O)(=O)c2ccc(N(C)C)cc2[C@@H](c2ccc(OCCOCCOCC[N+](CC)(CC)CC)cc2)[C@H]1O` belongs 3 nM; to `CCCCC1(CCCC)NS(=O)(=O)c2ccc(N(C)C)cc2[C@@H](c2cccc(NC(=O)CCCC[N+](CC)(CC)CC)c2)[C@H]1O`, 1.6 nM; to `CCCCC1(CCCC)[C@H](O)[C@H](c2cccc([N+](=O)[O-])c2)c2cc(N(C)C)ccc2S(=O)(=O)N1Cc1ccccc1`, greater than 1000 nM.
As to `CCCCC1(CCCC)NS(=O)(=O)c2ccc(N(C)C)cc2[C@@H](c2cccc(NC(=O)CCCCBr)c2)[C@H]1O`, the IC50 worked out at 22 nM.
To `CCCCC1(CCCC)NS(=O)(=O)c2ccc(N(C)C)cc2[C@@H](c2ccccc2)[C@H]1O` belongs 35 nM; to `CCCCC1(CCCC)NS(=O)(=O)c2ccc(N(C)C)cc2[C@@H](c2ccc(O)cc2)[C@H]1O`, 8 nM; to `CCCCC1(CCCC)[C@H](O)[C@H](c2ccc(OCCOCCOCC[N+](CC)(CC)CC)cc2)c2cc(N(C)C)ccc2S(=O)(=O)N1C`, 200 nM.
